Reference: ChEMBL document CHEMBL1150786, “Relationship of blood level and susceptibility in voriconazole treatment of histoplasmosis” (2007)
In brackets after ≈: the same amount, converted by molar mass.

How the values were obtained:
[1] = system: Histoplasma capsulatum; assay: Antimicrobial activity against Histoplasma capsulatum isolates form AIDS patient with primary histoplasmosis by modified CLSI method; format: functional
[2] = system: Histoplasma capsulatum; assay: Antimicrobial activity against Histoplasma capsulatum isolates form AIDS patient with relapsed histoplasmosis by modified CLSI method; format: functional

SMILES: C[C@@H](c1ncncc1F)[C@](O)(Cn1cncn1)c1ccc(F)cc1F [VORICONAZOLE]
- MIC [1]: 0.015 µg/mL (≈ 0.0429 µM)
- MIC [2]: 0.03 µg/mL (≈ 0.0859 µM)
